From article PMC4841555, “Optimization of the All-D Peptide D3 for Aβ Oligomer Elimination” (PLoS ONE, 2016)
Several values for one entry are separate records, joined by “and”; a condition that tells them apart may be missing. Identical values can stand only once. Non-standard residues stand in square brackets, D forms with d. Residues, ends and D or L forms follow the SMILES beside them.

Assays:
PC12 cells = experiment: MTT cell viability assay; type: cell-based, rat; details: 5 μM peptide without Aβ, 24 h
Experimental: Rat pheochromocytoma PC12 cells (Leibniz Institute DSMZ, Braunschweig, Germany) were cultivated in DMEM medium supplemented with 10% fetal bovine serum and 5% horse serum. 10,000 cells per well were seeded on collagen-coated 96 well plates (Gibco, Life technology, Carlsberg, USA) and incubated in a 95% humidified atmosphere with 5% CO2 at 37°C for 24 h. […] DB peptide was then added at different concentrations and incubated for further 40 min at 21°C and 600 rpm agitation before addition to the PC12 cells. […] Cell viability was then measured using the Cell proliferation Kit I (MTT) (Roche, Basel, Switzerland) according to the manufacturer’s instruction. The absorbance of the formazan product was determined by measuring at 570 nm after subtracting the absorption at 660 nm. For absorption measurements, a Polarstar Optima plate reader (BMG, Offenburg, Germany) was used. All results were normalized to cells that were treated with buffer only.
The cell viability assay was performed using PC12 cells in a MTT test. […] The absorption of buffer treated cells was set to 100% cell viability. […] The Mann-Whitney-U-test was used for statistical analysis. * p < 0.05; ** p < 0.01; *** p < 0.001.

Aβ(1–42) [1] = target: T1, Aβ(1–42) (Homo sapiens, UniProt P05067); experiment: Aβ aggregation inhibition ELISA; type: biochemical; details: 400 nM Aβ(1–42), 500 mM Tris pH 7.4, 23 h, 37°C, aggregate-specific ELISA, logistic fit, three independent experiments; read-out: EC50 of inhibition of Aβ aggregate formation
T1 construct: Aβ(1–42), N-terminally biotinylated Aβ(1–42) and FITC-Aβ(1–42) were purchased from Bachem; purchased Bachem (Heidelberg, Germany)
T1 sequence (P05067 672-713 limits assumed): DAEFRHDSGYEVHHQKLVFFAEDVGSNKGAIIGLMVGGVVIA
Experimental: Freshly dissolved monomeric Aβ(1–42) (400 nM in 500 mM Tris-buffer pH 7.4) was incubated with and without DB peptides in different concentrations (0.01, 0.05, 0.1, 0.5, 1, 5, 10, 50 and 100 μM for DB3 or half of the molar concentrations in case of DB3DB3) in a humidity chamber for 23 h at 37°C. The aggregation was analyzed by an enzyme-linked immunosorbent assay (ELISA). NP27 antibody in bicarbonate/carbonate buffer was used to coat the ELISA plate overnight. Then the plate was washed in PBS-Tween buffer (1x PBS + 0.05% Tween) and blocked for 2 h at room temperature with 5% casein buffer. After washing, Aβ aggregate solutions were added to the plate and incubated for 1 h at room temperature. The plate was washed again and bound Aβ aggregates were detected by biotinylated 6E10/HRP-avidin mediated immunoreaction (BioLegend, San Diego, CA USA) using TMB as detection reagent. […] Mean value and standard error were calculated from three independent experiments. EC50 was calculated by fitting the data to a logistic dose response function.
Fig 5 Inhibition of Aβ fibril formation and Aβ aggregation disassemble by DB3 and DB3DB3. A) Monomeric Aβ(1–42) (400 nM) was mixed with different concentrations of DB3 (0.01, 0.05, 0.1, 0.5, 1, 5, 10, 50, 100 μM) and the aggregation state of Aβ was analyzed using an Aβ aggregate specific ELISA. […] All data were determined in triplicate. […]

Aβ(1–42) oligomers = target: T2, Aβ(1–42) oligomers (Homo sapiens, UniProt P05067); experiment: QIAD assay (Aβ oligomer elimination); type: biochemical; details: 10 μM DB3DB3, 80 μM Aβ(1–42) preincubated 4.5 h, 40 min with peptide, density gradient centrifugation, RP-HPLC, triplicate
T2 construct: Aβ(1–42), N-terminally biotinylated Aβ(1–42) and FITC-Aβ(1–42) were purchased from Bachem; purchased Bachem (Heidelberg, Germany)
T2 sequence (P05067 672-713 limits assumed): as above
Experimental: The quantitative determination of interference with Aβ(1–42) aggregate size distribution (QIAD) was performed as described before. In brief, 80 μM Aβ(1–42) was incubated in 10 mM sodium phosphate buffer, pH 7.4 for 4.5 h at 22°C with 600 rpm agitation. Aβ(1–42) aggregation was continued for an additional 40 min with or without DB peptide. The obtained partial size distribution was analyzed by applying density gradient centrifugation. 100 μl of the incubated sample was placed on top of a gradient with 5 to 50% iodixanol (Optiprep, Axis-shield, Oslo, Norway) and separated at 259.000 x g for 3 h at 4°C using an ultracentrifuge (Optima MAX-XP, Beckman Coulter, Brea, USA). Fourteen fractions of 140 μl were taken from top to bottom. […] For quantification of the Aβ(1–42) amount in each fraction, reversed-phase high performance liquid chromatography (RP-HPLC) was performed using a Zorbax SB-300 C8 column (Agilent, Böblingen, Germany) connected to an Agilent 1260 Infinity system using 30% (v/v) acetonitrile with 0.1% (v/v) trifluoroacetic acid (TFA) as the mobile phase with a flow of 1 ml/min and a column temperature of 80°C. […] The UV absorption at 214 nm was measured. For quantification of the Aβ(1–42) amount, the area under the peak representing Aβ(1–42) was calculated and the molar concentration was determined using a calibration curve. […]

[2] = target: T3, preformed Aβ(1–42) aggregates (Homo sapiens, UniProt P05067); experiment: Aβ aggregate disassembly ELISA; type: biochemical
T3 construct: Aβ(1–42), N-terminally biotinylated Aβ(1–42) and FITC-Aβ(1–42) were purchased from Bachem; purchased Bachem (Heidelberg, Germany)
T3 sequence (P05067 672-713 limits assumed): as above
Experimental: Freshly dissolved monomeric Aβ(1–42) (400 nM in 500 mM Tris-buffer pH 7.4) was incubated in a humidity chamber for 22 h at 37°C in order to preform Aβ(1–42) aggregates. These preformed aggregates were coincubated with D-peptide in different concentrations (0.01, 0.05, 0.1, 0.5, 1, 5, 10, 50, 100 μM for DB3 or with half of the molar concentrations in case of DB3DB3) for additional 22 h at 37°C. The content of Aβ aggregates was measured and evaluated in the same way as the aggregation inhibition ELISA.
Fig 5 Inhibition of Aβ fibril formation and Aβ aggregation disassemble by DB3 and DB3DB3. A) Monomeric Aβ(1–42) (400 nM) was mixed with different concentrations of DB3 (0.01, 0.05, 0.1, 0.5, 1, 5, 10, 50, 100 μM) and the aggregation state of Aβ was analyzed using an Aβ aggregate specific ELISA. For DB3DB3 half of the molar concentrations compared to DB3 were used. Aβ without DB3 and DB3DB3 addition was taken as control. For DB3 an EC50 of 6 μM was calculated using a logistic fit model. DB3DB3 inhibited the formation of Aβ fibrils more efficiently with an EC50 of 7 nM. B) The disassembly properties of DB3 and DB3DB3 were measured using an Aβ aggregation specific ELISA. Monomeric Aβ(1–42) (400 nM) was preincubated in order to form fibrils and mixed with nine different concentrations of DB3 (0.01, 0.05, 0.1, 0.5, 1, 5, 10, 50, 100 μM). For DB3DB3, the molar concentrations were half those used for DB3. […] DB3DB3 disassembled Aβ aggregates at the lowest concentration […]. Thus, the EC50 could not be determined, but is < 10 nM. All data were determined in triplicate. The Mann-Whitney-U-test was performed for statistical analysis. * p< 0.05; ** p < 0.01; *** p < 0.001
The Aβ aggregate disassembly ELISA was used to analyze the effect of DB3 and DB3DB3 on preformed Aβ aggregates (Fig 5B). […] The Aβ aggregates specific ELISA was used to quantify Aβ aggregates. […] The results of measured Aβ aggregates normalized to the Aβ control were plotted against the peptide concentration. The EC50 was calculated by a logarithmic dose response function.

Aβ(1–42) [3] = target: T1, Aβ(1–42); experiment: Thioflavin T (ThT) fibril formation assay; type: biochemical; details: 20 μM Aβ(1–42), 20 μM peptide (method: 31 μg/ml), 20 μM ThT, 10 mM sodium phosphate pH 7.4, 37°C, compared after 5 h with Aβ(1–42)-only control
Experimental: 20 μM Aβ(1–42) was mixed with 20 μM Thioflavin T (ThT) and 31 μg/ml DB3 or DB3DB3 in 10 mM sodium phosphate buffer, pH 7.4. The assay was performed using a non-binding 96 well plate (Greiner Bio-One, Frickenhausen, Germany). ThT fluorescence was measured every 15 min at λex = 440 nm and λem = 490 nm in a temperature-controlled plate reader (Polarstar Optima, BMG, Offenburg, Germany) at 37°C with 1 min agitation before every measurement. Each value was background corrected using the ThT fluorescence of a peptide solution without Aβ(1–42). To investigate the influence of DB1 to DB5 on Aβ fibril formation, a Thioflavin T (ThT) assay was performed. In an aqueous environment the benzothiazole dye has a low fluorescence. […] The emission at 490 nm is directly proportional to the quantity of amyloid fibrils. Fibril formation of Aβ can be followed in real time by measuring the ThT fluorescence. Therefore, the inhibitory effects of the D-peptides DB1 to DB5 and D3 were investigated by co-incubating these peptides with Aβ(1–42) and performing the ThT assay. Fluorescence emission data were compared after 5 h incubation, because after this period the Aβ(1–42) control (without added peptide) reached its fluorescence maximum. […] 20 μM Aβ(1–42) was mixed with 20 μM DB1 to DB5 or 10 μM DB3DB3 and the ThT fluorescence was monitored. Aβ(1–42) without peptide addition was taken as the control. The ThT fluorescence of all samples were compared after 5 h, where the control, Aβ(1–42) only, reached its maximum in fluorescence emission. The Mann-Whitney-U-test was used for statistical analysis. * p < 0.05; ** p < 0.01; *** p < 0.001.

transgenic mice = details: ref [10], [15], [16], cited from earlier work
From the text: We have previously selected the 12mer all-D-enantiomeric peptide D3 via mirror image phage display. In vitro, D3 binds to amyloid plaques, reduces Aβ aggregation to regular fibrils, eliminates Aβ oligomers and converts preformed fibrils into non-amyloidogenic, non-fibrillar, non-toxic aggregates. In vivo, the plaque load and cerebral inflammation of transgenic mice is reduced after injection of D3 into the brain and cognitive impairment of transgenic mice is improved after oral application. The original phage library, from which D3 was selected, coded ...

With `CC[C@@H](C)[C@@H](NC(=O)[C@H]1CCCN1C(=O)[C@H](N)CCCNC(=N)N)C(=O)N[C@@H](C(=O)N[C@H](CCCNC(=N)N)C(=O)N[C@H](CC(C)C)C(=O)N[C@H](CCCNC(=N)N)C(=O)N[C@@H](C(=O)N[C@H](Cc1c[nH]cn1)C(=O)N[C@H](CCC(N)=O)C(=O)N[C@H](CC(N)=O)C(=O)N[C@H](CCCNC(=N)N)C(=O)N[C@H](CCCNC(=N)N)C(=O)N1CCC[C@@H]1C(=O)N[C@@H](C(=O)N[C@@H](C(=O)N[C@H](CCCNC(=N)N)C(=O)N[C@H](CC(C)C)C(=O)N[C@H](CCCNC(=N)N)C(=O)N[C@@H](C(=O)N[C@H](Cc1c[nH]cn1)C(=O)N[C@H](CCC(N)=O)C(=O)N[C@H](CC(N)=O)C(=O)N[C@H](CCCNC(=N)N)C(N)=O)[C@H](C)O)[C@H](C)O)[C@H](C)CC)[C@H](C)O)[C@H](C)O` [DB3DB3] (H-[dR][dP][dI][dT][dR][dL][dR][dT][dH][dQ][dN][dR][dR][dP][dI][dT][dR][dL][dR][dT][dH][dQ][dN][dR]-NH2) the “effect of peptide alone on PC12 cell viability” value (PC12 cells) was “not toxic”, the EC50 (Aβ(1–42) [1]) was 8 nM and 7 nM and the “reduction of the content of Aβ oligomers” value (Aβ(1–42) oligomers) was 82%. The “disassembly of the Aβ aggregates” value ([2]; 10 nM DB3DB3 added to 400 nM Aβ, compared to Aβ in the absence of peptide) was 80% and the EC50 ([2]; 400 nM Aβ(1–42) preincubated 22 h at 37°C, then with peptide 22 h (24 h) at 37°C, ELISA, triplicate) was < 10 nM.

In the case of “RPITRLHTDRNR [DB1, all-D D3 derivative, C-terminally amidated]”, the “inhibition of Aβ(1–42) fibril formation (ThT fluorescence)” value (shortened to “inhibition of Aβ(1–42) fibril formation”) (Aβ(1–42) [3]) is reported as 63%.

For “RPITRLQTHEQR [DB5, all-D D3 derivative, C-terminally amidated]”, the “inhibition of Aβ(1–42) fibril formation” value (Aβ(1–42) [3]) was 76%.

In the case of “RPITTLQTHQNR [DB2, all-D D3 derivative, C-terminally amidated]”, the “inhibition of Aβ(1–42) fibril formation” value (Aβ(1–42) [3]) is reported as 49%.

For “RPRTRLHTHRNR [D3, 12mer all-D-enantiomeric peptide selected via mirror image phage display, C-terminally amidated]”, the “plaque load and cerebral inflammation of transgenic mice” value (transgenic mice; injection of D3 into the brain) is given as “reduced”, the “cognitive impairment of transgenic mice” value (transgenic mice; oral application) is given as “improved” and the “inhibition of Aβ(1–42) fibril formation” value (Aβ(1–42) [3]) is given as 30%.

In the case of “RPRTRLRTHQNR [DB4, all-D D3 derivative, C-terminally amidated]”, the “inhibition of Aβ(1–42) fibril formation” value (Aβ(1–42) [3]) is reported as “no effect”.
